In patent US20150216182A1, “COMPOSITIONS AND METHODS OF THE ATTRACTION AND REPULSION OF INSECTS” (Olfactor Laboratories, Inc., priority 2012, published 2015):

Columns and labels:
female mosquitoes = assay: whole plant or invertebrate; details: 2 h; for mortality at 200 µg/mL: read-out: % mortality with 0.2 mg/ml; for mortality at 2000 µg/mL: read-out: % mortality with 2 mg/ml
cpA neurons [1] = assay: extracellular single-sensillum electrophysiology: inhibition of CO2-responsive (cpA) neuronal activity; details: for Class: Table 10, single compounds, percent reduction in cpA activity compared to baseline; for Class (inhibitor class of the individual component): Inh = inhibitor
larvae = assay: larvicidal activity assay; format: in vivo; details: 24 hour exposure, dead larvae / total larvae; for pest or weed control at 0.25 %: read-out: % Lethality with 0.25% compound conc.; for pest or weed control at 100 ppm: read-out: % Lethality at 100 ppm
Experimental: A 6-well plate (Corning Life Sciences, Tewksbury, Mass.) is used to test a compound's larvicidal activity. […] After a 24 hour exposure, the number of dead larvae are counted and recorded.
The results are presented in Table 17 as % lethality (the number of dead larvae divided by the total number of larvae).

cpA neurons [2] = assay: extracellular single-sensillum electrophysiology: activation of cpA neuronal activity; details: for Class: Table 6, single compounds, increase over baseline cpA neuronal activity
[3] = Table 13, single component alone

O=Cc1ccccc1O [OLI0116, Salicylaldehyde]
mortality at 200 µg/mL (female mosquitoes): 0% | mortality at 2000 µg/mL (female mosquitoes): 0%

CCCCCCCCO [OLI0080, 1-octanol]
Class (cpA neurons [1]): Mild Inhibitor (mild inhibitors (reducing activity by 20-40%)) | Class (inhibitor class of the individual component) (cpA neurons [1]; [3]): Mild | Class (inhibitor class of the individual component) (cpA neurons [1]; Table 16, single component alone): Mild

CCCCC1OC(=O)CC1C (centres unmarked) [OLI0094, whiskey lactone]
Class (cpA neurons [1]): Mild Inhibitor (mild inhibitors (reducing activity by 20-40%))

CC/C=C\CCOC(=O)CCC [OLI0083, cis-3-hexenyl butyrate]
Class (cpA neurons [1]): Mild Inhibitor (mild inhibitors (reducing activity by 20-40%)) | Class (inhibitor class of the individual component) (cpA neurons [1]; [3]): Mild

COc1ccc(C=O)cc1OC [OLI0095, Veratraldehyde]
Class (cpA neurons [1]): Mild Inhibitor (mild inhibitors (reducing activity by 20-40%)) | Class (inhibitor class of the individual component) (cpA neurons [1]; [3]): Mild

O=C(C=Cc1ccccc1)OCCc1ccccc1 [OLI0103, phenethyl cinnamate]
pest or weed control at 0.25 % (larvae; 0.25% compound): 0% | pest or weed control at 100 ppm (larvae; 100 ppm compound): 0% | mortality at 200 µg/mL (female mosquitoes): 5% | mortality at 2000 µg/mL (female mosquitoes): 25%

CC(C)C(=O)OCC=Cc1ccccc1 [OLI0108, cinnamyl isobutyrate]
mortality at 200 µg/mL (female mosquitoes): 10% | mortality at 2000 µg/mL (female mosquitoes): 100%

CCOC(=O)c1cccnc1 [OLI0085, ethyl nicotinate]
Class (cpA neurons [1]): Mild Inhibitor (mild inhibitors (reducing activity by 20-40%))

CCOC(=O)CC(C)=O [OLI0022, ethylacetoacetate]
mortality at 200 µg/mL (female mosquitoes): 0% | mortality at 2000 µg/mL (female mosquitoes): 0% | Class (cpA neurons [2]): Moderate Activator (Moderate activators yield an increase in neuronal activity that is between 40 and 60 spk/sec over baseline neuronal activity) | Comp A Class (cpA neurons [2]; Table 9, component A tested individually): Mod | Comp B Class (cpA neurons [2]; Table 9, component B tested individually): Mod | Class B (activator class of the individual component) (cpA neurons [2]; Table 15, single component alone, Mod Actv): Mod

CCCC(=O)CC [OLI0035, 3-hexanone]
Class (cpA neurons [2]): Mild Activator (mild activators yield an increase in neuronal activity that is between 20 and 40 spk/sec over baseline neuronal activity)

CC(C)C(=O)OCC=Cc1ccccc1 [OLI0117, cinnamyl isobutyrate]
pest or weed control at 0.25 % (larvae; 0.25% compound): 100% | pest or weed control at 100 ppm (larvae; 100 ppm compound): 0%

CCC(=O)OCC(C)C [OLI0054, isobutyl propionate]
Class (cpA neurons [2]): Mild Activator (mild activators yield an increase in neuronal activity that is between 20 and 40 spk/sec over baseline neuronal activity)

CC(=O)OCC(C)C [OLI0053, isobutyl acetate]
Class (cpA neurons [2]): Mild Activator (mild activators yield an increase in neuronal activity that is between 20 and 40 spk/sec over baseline neuronal activity)

CC(C)=C1CC[C@@H](C)CC1=O [OLI0064, R-+ pulegone]
Class (cpA neurons [2]): Mild Activator (mild activators yield an increase in neuronal activity that is between 20 and 40 spk/sec over baseline neuronal activity)

CCCC(=O)OC/C=C(\C)CCC=C(C)C [OLI0090, Geranylbutyrate]
Class (cpA neurons [1]): Mild Inhibitor (mild inhibitors (reducing activity by 20-40%))

C=CC(=O)CC [OLI0023, ethylvinylketone]
Class (cpA neurons [2]): Moderate Activator (Moderate activators yield an increase in neuronal activity that is between 40 and 60 spk/sec over baseline neuronal activity)

CC1=CC(=O)CC(C)(C)C1=O [OLI0037, 4-oxoisophorone]
Class (cpA neurons [2]): Mild Activator (mild activators yield an increase in neuronal activity that is between 20 and 40 spk/sec over baseline neuronal activity)

CCOC(=O)CCC(C)=O [OLI0047, ethyllevulinate]
Class (cpA neurons [2]): Mild Activator (mild activators yield an increase in neuronal activity that is between 20 and 40 spk/sec over baseline neuronal activity)

Ultrazur [OLI0118]
% Lethality with 0.25% compound conc. (larvae; 0.25% compound): 100% lethal | % Lethality at 100 ppm (larvae; 100 ppm compound): 0% lethal

COC(=O)CCC(=O)OC [OLI0040, dimethyl succinate]
Class (cpA neurons [2]): Mild Activator (mild activators yield an increase in neuronal activity that is between 20 and 40 spk/sec over baseline neuronal activity)

Cc1ccc(C=O)c(C)c1 [OLI0030, 2,4-dimethyl benzaldehyde]
Class (cpA neurons [2]): Mild Activator (mild activators yield an increase in neuronal activity that is between 20 and 40 spk/sec over baseline neuronal activity)

CCCCCCC=O [OLI0049, heptaldehyde]
Class (cpA neurons [2]): Mild Activator (mild activators yield an increase in neuronal activity that is between 20 and 40 spk/sec over baseline neuronal activity)

C/C=C(\C)C(=O)OC(C)C [OLI0057, isopropyl tiglate]
Class (cpA neurons [2]): Mild Activator (mild activators yield an increase in neuronal activity that is between 20 and 40 spk/sec over baseline neuronal activity)

COc1cc(C)ccc1O [OLI0033, 2-methoxy-4-methylphenol]
Class (cpA neurons [2]): Mild Activator (mild activators yield an increase in neuronal activity that is between 20 and 40 spk/sec over baseline neuronal activity)

CCCC(=O)OC(C)C(C)=O (centres unmarked) [OLI0039, butan-3-one-2yl butanoate]
Class (cpA neurons [2]): Mild Activator (mild activators yield an increase in neuronal activity that is between 20 and 40 spk/sec over baseline neuronal activity)

CCOC(=O)CC(C)O (centres unmarked) [OLI0042, ethyl 3-hydroxybutyrate]
pest or weed control at 0.25 % (larvae; 0.25% compound): 0% | pest or weed control at 100 ppm (larvae; 100 ppm compound): 0% | mortality at 200 µg/mL (female mosquitoes): 0% | mortality at 2000 µg/mL (female mosquitoes): 0% | Class (cpA neurons [2]): Mild Activator (mild activators yield an increase in neuronal activity that is between 20 and 40 spk/sec over baseline neuronal activity)

dipropylenglykol-monomethyl ether [OLI0041]
Class (cpA neurons [2]): Mild Activator (mild activators yield an increase in neuronal activity that is between 20 and 40 spk/sec over baseline neuronal activity)

CC1=CC(C)C(C=O)CC1 (centres unmarked) [OLI0031, 2,4-dimethyl-3-cyclohexene-carboxaldehyde]
Class (cpA neurons [2]): Mild Activator (mild activators yield an increase in neuronal activity that is between 20 and 40 spk/sec over baseline neuronal activity)

C/C=C/C(=O)OCC(C)C [OLI0055, isobutyl trans-2-butenoate]
Class (cpA neurons [2]): Mild Activator (mild activators yield an increase in neuronal activity that is between 20 and 40 spk/sec over baseline neuronal activity)

CCOC(=O)CC(C)C [OLI0046, ethylisovalerate]
Class (cpA neurons [2]): Mild Activator (mild activators yield an increase in neuronal activity that is between 20 and 40 spk/sec over baseline neuronal activity)

CCOC(=O)C(C)C [OLI0045, ethylisobutyrate]
Class (cpA neurons [2]): Mild Activator (mild activators yield an increase in neuronal activity that is between 20 and 40 spk/sec over baseline neuronal activity)

CCCC(=O)OC(C)(C)Cc1ccccc1 [OLI0082, alpha,alpha-dimethyl phenethyl butyrate]
Class (cpA neurons [1]): Mild Inhibitor (mild inhibitors (reducing activity by 20-40%)) | Class (inhibitor class of the individual component) (cpA neurons [1]; [3]): Mild

CC(=O)CC/C=C(\C)CCC=C(C)C [OLI0089, Geranylacetone]
Class (cpA neurons [1]): Mild Inhibitor (mild inhibitors (reducing activity by 20-40%)) | Class (inhibitor class of the individual component) (cpA neurons [1]; [3]): Mild

CCOC=O [OLI0044, ethylformate]
Class (cpA neurons [2]): Mild Activator (mild activators yield an increase in neuronal activity that is between 20 and 40 spk/sec over baseline neuronal activity)

CCOCc1ccco1 [OLI0048, furfurylethylether]
Class (cpA neurons [2]): Mild Activator (mild activators yield an increase in neuronal activity that is between 20 and 40 spk/sec over baseline neuronal activity)

CC(=O)OCC=C(C)C [OLI0062, prenylacetate]
Class (cpA neurons [2]): Mild Activator (mild activators yield an increase in neuronal activity that is between 20 and 40 spk/sec over baseline neuronal activity)

CCCC(=O)OC(C)C [OLI0056, isopropyl butyrate]
Class (cpA neurons [2]): Mild Activator (mild activators yield an increase in neuronal activity that is between 20 and 40 spk/sec over baseline neuronal activity)

COc1ccccc1C=O [OLI0061, o-anisaldehyde]
Class (cpA neurons [2]): Mild Activator (mild activators yield an increase in neuronal activity that is between 20 and 40 spk/sec over baseline neuronal activity)

CCc1ccc(C=O)cc1 [OLI0036, 4-ethylbenzaldehyde]
Class (cpA neurons [2]): Mild Activator (mild activators yield an increase in neuronal activity that is between 20 and 40 spk/sec over baseline neuronal activity)

CCCCCC=O [OLI0051, hexanal]
Class (cpA neurons [2]): Mild Activator (mild activators yield an increase in neuronal activity that is between 20 and 40 spk/sec over baseline neuronal activity)

CCCC(=O)CCC [OLI0050, heptanone-4]
Class (cpA neurons [2]): Mild Activator (mild activators yield an increase in neuronal activity that is between 20 and 40 spk/sec over baseline neuronal activity)

Cc1cccc(C=O)c1 [OLI0060, m-tolualdehyde]
Class (cpA neurons [2]): Mild Activator (mild activators yield an increase in neuronal activity that is between 20 and 40 spk/sec over baseline neuronal activity)

ethyl-2,3,5(6)-dimethyl pyrazine [OLI0043]
Class (cpA neurons [2]): Mild Activator (mild activators yield an increase in neuronal activity that is between 20 and 40 spk/sec over baseline neuronal activity)

CC(=O)c1cnccn1 [OLI0038, acetyl-2-pyrazine]
Class (cpA neurons [2]): Mild Activator (mild activators yield an increase in neuronal activity that is between 20 and 40 spk/sec over baseline neuronal activity)

COC(=O)CC(C)C [OLI0058, methyl isovalerate]
Class (cpA neurons [2]): Mild Activator (mild activators yield an increase in neuronal activity that is between 20 and 40 spk/sec over baseline neuronal activity)

CC(C=O)c1ccccc1 (centres unmarked) [OLI0034, 2-phenylpropionaldehyde]
Class (cpA neurons [2]): Mild Activator (mild activators yield an increase in neuronal activity that is between 20 and 40 spk/sec over baseline neuronal activity)
